Reference: patent US4710580A, “2-[1,3,2-dioxaphospholan-2-yloxy]ethyl compounds” (American Home Products Corporation, priority 1986, dated 1987)

Key:
human platelet PLA2 = target: T1, human platelet PLA2 (Homo sapiens, UniProt P14555); experiment: in vitro inhibition of human platelet PLA2 (hydrolysis of [1-14C] oleic acid-labelled E. coli membrane phospholipids); type: biochemical; details: pH 7.4, 30 minutes incubation
T1 construct: The PLA2 enriched supernatant fluid is removed and the amount of protein is determined by the Lowry method; from tissue; host or cells: human platelets (expired, blood bank), acid extract, 10,000 g supernatant
T1 sequence (P14555 21-144): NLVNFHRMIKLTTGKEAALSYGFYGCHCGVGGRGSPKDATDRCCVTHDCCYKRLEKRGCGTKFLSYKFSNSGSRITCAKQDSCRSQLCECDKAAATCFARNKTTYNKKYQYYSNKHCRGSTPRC
Experimental: The ability of the compounds to inhibit the activity of PLA2 enzyme is measured in the following in vitro assay.
The assay is carried out as follows:
E. coli, cultured to exponential growth, are sedimented for 15 minutes at 10,000 g and resuspended in sterile isotonic saline (1-3 ml). 10-25 μCi [1-^14 C] oleic acid (or arachidonic acid) is added to a sterile flask, evaporated by N2 and resolubilized with 0.3 ml 20% fatty acid-free BSA. 75-100 ml of nutrient broth and 1 ml E. coli are then added to each flask and incubated for 2-3 hours at 37° C. [1-^14 C] oleic acid labelled E. coli are then sedimented, suspended in saline and added to fresh nutrient broth and incubated for 1.5 hours at 37° C. to complete [1-^14 C] oleic acid incorporation into the phospholipids. After overnight refrigeration of cultures, E. coli are again sedimented, suspended in saline and autoclaved for 15 minutes at 120° C. E. coli cultures are washed twice with saline (first wash contains 1% BSA) and resuspended in saline. […] Cell number is determined by measuring the optical density at 550 nm ([…]=1 O.D.). The amount of radioactivity associated with cells is determined by counting a defined volume of cell suspension. […]
Expired human platelets from the blood bank are centrifuged for 15 minutes at 200 g to obtain a platelet rich plasma fraction and to remove the red blood cells. […] The PLA2 enriched supernatant fluid is removed and the amount of protein is determined by the Lowry method. […]
The assay measures the hydrolysis of E. coli membrane phospholipids and the release of free [1-^14 C] oleic acid from the C-2 position of phospholipids by human platelet PLA2. […] Free fatty acid ([1-^14 C] oleic acid labeled phospholipids are visualized with exposure to iodine vapors. Radioactive areas that co-chromatographed with authentic oleic acid and phospholipid standards are cut out and placed in a scintillation vial. One ml CH3 OH and 10 ml Hydrofluor are added to each cut strip and radioactivity is determined by liquid scintillation counting.
The percent hydrolysis is calculated by the following equation: [formula]

[1] = test system: lipoxygenase and/or cyclooxygenase pathways of arachidonic acid; experiment: arachidonic acid (AA)-induced murine ear edema test; type: in vivo, Swiss Webster female mice; details: 1 mg/ear, drug 30 minutes prior to AA (2 mg/ear), ear thickness measured after 1 hour
Source text: (§1) The ability of the compounds of the invention to inhibit the lipoxygenase and/or cyclooxygenase pathways of arachidonic acid is examined in the in vivo arachidonic acid (AA)-/12-O-tetradecanoylphorbol acetate (TPA)-induced murine ear edema test.
(§2) According to this test, Swiss Webster female mice (Buckshire), approximately 8 weeks old, are placed into plastic boxes in groups of six. Eight groups of mice receive AA topically on the right ear, and another 8 groups receive TPA topically on the right ear. AA and TPA are dissolved in acetone at concentrations of 100 mg/ml ad 100 μg/ml respectively. The phlogistics are applied to the right ear by the means of an automatic pipet. Volumes of 10 μl are applied to the inner and outer surfaces of the ear. Each mouse receives either 2 mg/ear AA or […] TPA. The left ear (control) receives acetone delivered in the same manner. […]
(§3) Measurements are taken with Oditest calipers, 0-10 mm with 0.01 graduations. The right and left ears are measured after 1 hour AA-induced inflammation and 4 hours after TPA-induced inflammation.
(§4) The difference between right and left ear thickness is calculated and the significance is determined by a one way analysis of variance with Dunnett's comparisons to control (P=0.05). Drug effects are expressed as a percent change from control values: [formula]

[2] = test system: lipoxygenase and/or cyclooxygenase pathways of arachidonic acid; experiment: 12-O-tetradecanoylphorbol acetate (TPA)-induced murine ear edema test; type: in vivo, Swiss Webster female mice; details: 1 mg/ear, drug 30 minutes after TPA (4 μg/ear), ear thickness measured after 4 hours
Source text: as §1, §2, §3, §4

Row | Structure (SMILES) | inhibition at 100 µM (human platelet PLA2) | % Change from Control, TOPICAL, AA [1] | % Change from Control, TOPICAL, TPA [2]
1 | CCCCCCCCCCCCNC(=O)NCCOP1(=O)OCCO1 [Example 1, N-[2-(1,3,2-Dioxaphospholan-2-yloxy)ethyl]-N'-dodecylurea P-oxide] | 32% |  | 
2 | CCCCCCCCCCCCNC(=O)OCCOP1(=O)OCCO1 [Example 2, Dodecylcarbamic acid 2-(1,3,2-dioxaphospholan-2-yloxy)ethyl ester P-oxide] | 92% | -16% | -38%
3 | CCCCCCCCCCCCCCCCS(=O)(=O)NCCOP1(=O)OCCO1 [Example 3, N-[2-(1,3,2-dioxaphospholan-2-yloxy)ethyl]-1-hexadecanesulfonamide P-oxide] | 28% |  | 
